The LD50 is the dose expected to kill half of the subjects tested. Low readings indicate greater toxicity, high ones lower toxicity.

The values that follow come from patent US4141991A, “Ferrocene derivatives” (Hoechst Aktiengesellschaft, priority 1976, dated 1979).

Data set [1] has as its system liver ferritin. Kind of data set: Analysis of the ferritin from rat livers (quantitative determination of ferritin protein and its iron content). It counts as in vivo. The following applies: for Ratio of iron to protein: rat liver ferritin, two successive daily doses corresponding to 52.5 mg Fe/kg; for Ratio of iron to protein / Ferritin-iron / Ferritin-protein: average values from 6 animals; for Ferritin-iron / Ferritin-protein: two successive daily doses corresponding to 52.5 mg Fe/kg (table; text 52.2), 24 hours after 2nd administration. As to the method:
24 hours after the 2nd administration the animals were killed. […] For this, ferritin is isolated from the liver by thermal denaturation, ammonium sulfate fractionation and gel filtration, and the protein is determined by amino acid analysis and the iron content by atom absorption.

Data set [2] deals with liver ferritin. Kind of data set: Histological comparison test of liver ferritin (Berlin-blue reaction). It counts as in vivo. The following applies: 6 male rats and 6 male mice; 2 doses corresponding to 52.2 mg Fe/kg; 24 hours after 2nd administration. The method, then: After oral administration, sideropenia resulting from by-passing the normal regulating mechanism in the intestine for ionic iron, is quickly compensated. Thus, the results of an iron-deficient diet for rats and mice, such as reduced body weight, decrease of hemoglobin, of the hematocrit, of the serum iron and of the number of erythrocytes, is fully compensated by the administration once of a dose of one of the compounds according to the invention corresponding to 2 mg of iron per animal. The compounds according to the invention are resorbed well orally, the excretion of unchanged substance in urine usually being less than 1%. The compounds are distinguished by a distinct nontoxicity, the LD50 of 4-ferrocenoyl-cyclohexene thus amounting to 2000 mg/kg in mice and 3,000 mg/kg in rats. As can be shown by biochemical determination of the ferritin protein and its degree of iron saturation, the compounds are completely metabolised in the liver, that is, the iron is released and incorporated in the storage form that can be used to form hemoglobin, that is in liver ferritin, and in the case of an excess of added substance, in ferritin and in hemosiderin. These discoveries are supported by histological comparison tests, in which the increase of liver ferritin is recognisable in a Berlin-blue reaction in the form of a uniform blue shading of the cytoplasma of the liver cells, and any hemosiderin that may have formed is recognisable in the form of fine blue grains.
The compounds were administered to 6 male rats and 6 male mice on two successive days in individual doses corresponding to an iron content of 52.2 mg Fe per kg of animal. 24 hours after the 2nd administration the animals were killed. […] The quantitative determination of the ferritin protein and its iron content (table) confirm these findings. For this, ferritin is isolated from the liver by thermal denaturation, ammonium sulfate fractionation and gel filtration, and the protein is determined by amino acid analysis and the iron content by atom absorption.

Data set [3] relates to mice. Kind of data set: Acute toxicity (LD50) in mice.
The test system of data set [4] is rats. Briefly: Acute toxicity (LD50) in rats.
In data set [5] the test system is ability to utilize the iron. The following applies: among 2a-d, according to details in the literature; cited from earlier work.

As to “1,1'-di-hexahydrobenzoyl ferrocene [Example 2c]”, the “Ratio of iron to protein” value in data set [1] is 0.42. In data set [1] (rat liver), this compound returned a Ferritin-iron of 94 μg/g tissue and a Ferritin-protein of 224 μg/g tissue. Moreover, the “histological increase of the liver ferritin” value (“histological increase” below) in data set [2] was “do not cause any histologically recognisable increase of the liver ferritin”.
As to `O=C([c-]1cccc1)C1CC=CCC1.[Fe+2].c1cc[cH-]c1` (centres unmarked) [Example 1, 4-Ferrocenoyl-cyclohexene], the “Ratio of iron to protein” value in data set [1] came out at 1.19. In data set [1] (rat liver, after administration, from the table), the “ferritin protein and its iron content in comparison with the known compounds 2a-d” value is “clearly increased more markedly”. In data set [1] (rat liver), this compound registered a Ferritin-iron of 1133 μg/g tissue and a Ferritin-protein of 950 μg/g tissue. Besides, in data set [2], the “hemosiderin particles, histologically” value is “individual hemosiderin particles are observed”; the “histological increase” value is “in comparison with 2a and 2b exhibits a substantially greater increase of the liver ferritin”. The same compound displayed an LD50 in data set [3] of 2000 mg/kg. Further, the median lethal dose (LD50) in data set [4] is listed as 3,000 mg/kg.
Take “1,1'-di-(3,5,5-trimethyl-hexanoyl)-ferrocene [Example 2b]”: in data set [1], the “Ratio of iron to protein” value came to 0.26. In data set [1] (rat liver), this compound registered a Ferritin-iron of 148 μg/g tissue and a Ferritin-protein of 567 μg/g tissue.
In the same order, the values of `O=C([c-]1cccc1)C1CCCCC1.[Fe+2].c1cc[cH-]c1` [Example 2a, hexahydrobenzoyl ferrocene] are 0.43, 209 μg/g tissue and 475 μg/g tissue.
For “1,1'-di-neopentyl ferrocene [Example 2d]”, the “Ratio of iron to protein” value in data set [1] came out at 0.38. In addition, in data set [1] (rat liver), the Ferritin-iron was 61 μg/g tissue and the Ferritin-protein came out at 130 μg/g tissue. Moreover, the “histological increase” value in data set [2] is recorded as “do not cause any histologically recognisable increase of the liver ferritin”. In addition, the “ability to utilize the iron” value in data set [5] was “the best, especially regarding its ability to utilize the iron”.
